From PubChem BioAssay (NCI)
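96-well plates; 48 h exposure; 5 concentrations. Endpoints by linear interpolation between flanking doses. Not reached: highest tested concentration assigned. Abbreviation: GI50, concentration required for 50% inhibition of growth. TGI is the concentration that stops growth completely.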

Columns and labels:
Experiment in all cases: NCI-60 cell line screen, 48 h
[1] = test system: MALME-3M melanoma
[2] = test system: COLO 205 colon
[3] = test system: NCI/ADR-RES ovarian
[4] = test system: UO-31 renal
[5] = test system: NCI-H226 lung
[6] = test system: OVCAR-3 ovarian
[7] = test system: SR leukemia
[8] = test system: CAKI-1 renal
[9] = test system: K-562 leukemia
[10] = test system: HCT-116 colon

CCN1C(=O)N(c2c(F)c(OC)cc(OC)c2F)Cc2cnc3[nH]c(CN4CCOCC4)cc3c21
GI50 [1]: 1450 nM
TGI [1]: 20.2 µM
GI50 [2]: 3.15 µM
TGI [2]: > 100 µM
GI50 [3]: 4.48 µM
TGI [3]: > 100 µM
GI50 [4]: 878 nM
TGI [4]: > 100 µM
GI50 [5]: 0.8 µM
TGI [5]: > 100 µM
GI50 [6]: 5.73 µM
TGI [6]: > 100 µM
GI50 [7]: 1620 nM
TGI [7]: 9.95 µM
GI50 [8]: 528 nM
TGI [8]: > 100 µM
GI50 [9]: 8.66 µM
TGI [9]: > 100 µM
GI50 [10]: 1840 nM
TGI [10]: 19.4 µM

CC(C)(C)c1ccc(-c2nnc(SCc3ccc(Cl)cc3)n2-c2cccc(C(F)(F)F)c2)cc1
TGI [1]: > 100 µM
TGI [2]: 23.4 µM
TGI [3]: > 100 µM
TGI [4]: 34.2 µM
TGI [5]: 97.3 µM
TGI [6]: 16.8 µM
TGI [7]: 31.5 µM
TGI [8]: > 100 µM
TGI [9]: > 100 µM
TGI [10]: > 100 µM

COc1cc2c(/C=C3\C(=O)Nc4ccc(Br)cc43)c(Cl)n(C)c2cc1C
GI50 [1]: 2750 nM
TGI [1]: 10 µM
GI50 [2]: 1.96 µM
TGI [2]: 5.43 µM
GI50 [3]: 0.799 µM
TGI [3]: 3.41 µM
GI50 [4]: 2460 nM
TGI [4]: 11.3 µM
GI50 [5]: 1.88 µM
TGI [5]: 6.18 µM
GI50 [6]: 1.56 µM
TGI [6]: 3.56 µM
GI50 [7]: 1420 nM
GI50 [8]: 2260 nM
TGI [8]: 7.3 µM
GI50 [9]: 1.96 µM
TGI [9]: > 29.2 µM
GI50 [10]: 1610 nM
TGI [10]: 7.17 µM

COc1ccccc1Nc1nc(-c2cc3cccc(C(F)(F)F)c3oc2=O)cs1
GI50 [1]: 1630 nM
TGI [1]: > 85.6 µM
GI50 [2]: 0.172 µM
TGI [2]: 0.522 µM
GI50 [3]: 0.0468 µM
TGI [3]: 5.55 µM
GI50 [4]: 527 nM
TGI [4]: > 57.1 µM
GI50 [5]: 0.601 µM
TGI [5]: 56.3 µM
GI50 [6]: 0.0624 µM
TGI [6]: 0.203 µM
GI50 [7]: 84 nM
TGI [7]: > 100 µM
GI50 [8]: 142 nM
TGI [8]: > 100 µM
GI50 [9]: 0.0538 µM
TGI [9]: > 100 µM
GI50 [10]: 80.5 nM
TGI [10]: 11.1 µM

O=C(Nc1ccccc1Cl)c1ccc(NC2=C(Cl)C(=O)N(Cc3ccccc3)C2=O)cc1
GI50 [1]: 86100 nM
TGI [1]: > 100 µM
GI50 [2]: 51.3 µM
TGI [2]: > 100 µM
GI50 [3]: 86.2 µM
TGI [3]: > 100 µM
GI50 [4]: > 100000 nM
TGI [4]: > 100 µM
GI50 [5]: 32.5 µM
TGI [5]: 92.3 µM
GI50 [6]: 18.7 µM
TGI [6]: 36.6 µM
GI50 [7]: 15700 nM
TGI [7]: 41.5 µM
GI50 [8]: 43500 nM
TGI [8]: > 100 µM
GI50 [9]: 21.8 µM
TGI [9]: 49.3 µM
GI50 [10]: 21400 nM
TGI [10]: 47.5 µM

Cn1cccc1-c1cc(-c2ccc(Br)cc2)nc(N)c1C#N
GI50 [1]: > 100000 nM
TGI [1]: > 100 µM
GI50 [2]: > 100 µM
TGI [2]: > 100 µM
GI50 [3]: > 100 µM
TGI [3]: > 100 µM
GI50 [4]: > 100000 nM
TGI [4]: > 100 µM
GI50 [5]: 63.8 µM
TGI [5]: > 100 µM
GI50 [6]: > 100 µM
TGI [6]: > 100 µM
GI50 [7]: 3420 nM
TGI [7]: 20.4 µM
GI50 [8]: > 100000 nM
TGI [8]: > 100 µM
GI50 [9]: > 100 µM
TGI [9]: > 100 µM
GI50 [10]: > 100000 nM
TGI [10]: > 100 µM

O=[N+]([O-])c1ccc2[nH]cc(-c3c4ccccc4cc4[nH]c5ccc([N+](=O)[O-])cc5c34)c2c1
GI50 [1]: 2320 nM
TGI [1]: 6.77 µM
GI50 [2]: 2.46 µM
TGI [2]: 7 µM
GI50 [3]: 2.91 µM
TGI [3]: 11.5 µM
GI50 [4]: 1760 nM
TGI [4]: 5.1 µM
GI50 [5]: 2.2 µM
TGI [5]: 5.8 µM
GI50 [6]: 2.57 µM
TGI [6]: 7.32 µM
GI50 [7]: 2860 nM
TGI [7]: > 100 µM
GI50 [8]: 1800 nM
TGI [8]: 3.64 µM
GI50 [9]: 3.5 µM
TGI [9]: > 100 µM
GI50 [10]: 2160 nM
TGI [10]: 5 µM

CO/N=C1/c2cc(OC)ccc2-c2c(NOC)nc3ccccc3c21
GI50 [1]: 103 nM
TGI [1]: 23.7 µM
GI50 [2]: 41.3 µM
TGI [2]: > 100 µM
GI50 [3]: 53 µM
TGI [3]: > 100 µM
GI50 [4]: 35400 nM
TGI [4]: > 100 µM
GI50 [5]: 35.1 µM
TGI [5]: > 100 µM
GI50 [6]: 49.2 µM
TGI [6]: > 100 µM
GI50 [7]: 38700 nM
TGI [7]: > 100 µM
GI50 [8]: > 100000 nM
TGI [8]: > 100 µM
GI50 [9]: 65.7 µM
TGI [9]: > 100 µM
GI50 [10]: 22600 nM
TGI [10]: 49.2 µM

CN(C)CCn1cc(-c2ccc3c(Nc4ccc(CC(=O)Nc5cccc(F)c5)cc4)ncnc3c2)cn1
GI50 [1]: 4700 nM
TGI [1]: > 10 µM
GI50 [2]: 0.0559 µM
TGI [2]: 3.22 µM
GI50 [3]: > 10 µM
TGI [3]: > 10 µM
GI50 [4]: 5670 nM
TGI [4]: > 10 µM
GI50 [5]: > 10 µM
TGI [5]: > 10 µM
GI50 [6]: 1.6 µM
TGI [6]: 3.48 µM
GI50 [7]: 1530 nM
TGI [7]: > 10 µM
GI50 [8]: 1240 nM
TGI [8]: 3.4 µM
GI50 [9]: 2.72 µM
TGI [9]: > 10 µM
GI50 [10]: 1260 nM
TGI [10]: 2.72 µM

CCOC1NC(=O)Oc2ccccc21 (centres undefined)
TGI [1]: > 100 µM
TGI [2]: > 100 µM
TGI [3]: > 100 µM
TGI [4]: > 100 µM
TGI [5]: > 100 µM
TGI [6]: > 100 µM
TGI [7]: > 100 µM
TGI [8]: > 100 µM
TGI [9]: > 100 µM
TGI [10]: > 100 µM

COc1ccc(-n2c(N)c(C(=O)NCCN3CCOCC3)c3nc4ccccc4nc32)cc1OC
GI50 [1]: 6320 nM
TGI [1]: 71.8 µM
GI50 [2]: 6.97 µM
TGI [2]: > 100 µM
GI50 [3]: 36 µM
TGI [3]: > 100 µM
GI50 [4]: 3530 nM
TGI [4]: 62.1 µM
GI50 [5]: 11.4 µM
TGI [5]: > 100 µM
GI50 [6]: 20.3 µM
TGI [6]: > 100 µM
GI50 [7]: 630 nM
TGI [7]: 22.3 µM
GI50 [8]: 4620 nM
TGI [8]: > 100 µM
GI50 [9]: 2.96 µM
TGI [9]: > 100 µM
GI50 [10]: 3490 nM
TGI [10]: > 100 µM
